Columns and labels:
[1] = Malonate level in the ischaemic myocardium after i.v. dimethyl malonate (LC-MS); set-up: species or system mouse; conditions: intravenous infusion of dimethyl malonate in vivo
Procedure: In addition, as shown in FIG. 5a the cell permeability of the compound may be determined by comparing the level of the compound in an untreated cell with that of a treated cell. Typically, the level of the compound may be determined using LC/MS as detailed in the metabolomic analysis in the Examples.
Infarct size was assessed after 30 min of ischaemia followed by 120 min reperfusion using 2% triphenyltetrazolium chloride staining and is expressed as a percentage of the risk zone^33. […] Control mice were infused with sterile saline. The total volume administered never exceeded 200 μL/mouse.
Equal amounts wet weight murine tissue were lysed in 250 μL extraction solution (ES; 30% acetonitrile, 50% methanol and 20% water) per 10 mg tissue in Precellysis 24 vials, following the manufacturer's instructions. […] For the LC separation, column A was Sequant Zic-Hilic (150 mm×4.6 mm, internal diameter 3.5 μm) with a guard column (20 mm×2.1 mm 3.5 μm) from HiChrom, Reading, UK. […] Gradient: 0-3 min 80% B, 25 min 20% B, 26 min 80% B, 36 min 80% B. Column B was sequant Zic-pHilic (150 mm×2.1 mm i.d. 3.5 μm) with guard column (20 mm×2.1 mm i.d. […]) from HiChrom, Reading, UK. […] Spectra were analysed using both targeted and untargeted approaches. […] The arrays of spectra were then statistically analysed using the functions explore.data and univariate of the R package mum a^40.

[2] = tested on: succinate accumulation in the ischaemic myocardium; experiment: Succinate accumulation in the ischaemic myocardium in vivo (LC-MS); conditions: i.v. infusion in vivo, mouse; 30 min ischaemia
Procedure: For the in vivo heart IR model an open-chest, in situ heart model was used^31,32. Male mice (8-10 weeks; Charles River Laboratories, UK) were anaesthetised with sodium pentobarbital (70 mg/kg intraperitoneally (i.p.)), intubated endotracheally and ventilated with 3 cm H2O positive-end expiratory pressure. Adequacy of anaesthesia was monitored using corneal and withdrawal reflexes. Ventilation frequency was kept at 110 breaths per minute with tidal volume between 125-150 μL. A thoracotomy was performed and the heart exposed by stripping the pericardium. A prominent branch of the left anterior descending coronary artery (LAD) was surrounded by a 7-0 Prolene suture that was then passed through a small plastic tube. Ischaemia was induced by tightening the tubing against the heart surface. To assess metabolites during IR in vivo, mice were divided into three groups: 30 min ischaemia, 30 min ischaemia plus 5 min reperfusion and 30 min sham-operation in which the suture was placed but the LAD was not occluded. At the end of each protocol tissue was removed from the at risk and peripheral areas of the heart, selected visually by comparing white versus red tissue, and snap-frozen in liquid nitrogen. Sham-operated tissue was removed from the presumed risk zone. Infarct size was assessed after 30 min of ischaemia followed by 120 min reperfusion using 2% triphenyltetrazolium chloride staining and is expressed as a percentage of the risk zone^33. […] For the LC separation, column A was Sequant Zic-Hilic (150 mm×4.6 mm, internal diameter 3.5 μm) with a guard column (20 mm×2.1 mm 3.5 μm) from HiChrom, Reading, UK. […] (150 mm×2.1 mm i.d. 3.5 μm) with guard column (20 mm×2.1 mm i.d. […]) from HiChrom, Reading, UK. […] Spectra were analysed using both targeted and untargeted approaches. For the targeted approach spectra were analysed using XCalibur Qual Browser and XCalibur Quan Browser softwares (Thermo Scientific) by referencing to an internal library of compounds. […] The arrays of spectra were then statistically analysed using the functions explore.data and univariate of the R package mum a^40.

COC(=O)CC(=O)OC [dimethyl malonate]
accumulation of malonate in the ischaemic myocardium [1]: results in accumulation of malonate | succinate accumulation in the ischaemic myocardium [2]: strikingly decreased succinate accumulation
